According to PubChem BioAssay (NCI):
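Each compound was tested at five concentrations against cells in 96-well plates for 48 hours. Here, GI50 denotes the concentration required for 50% inhibition of growth. At the TGI there is no net growth.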

Key:
Test in all cases: NCI anticancer screen, dose series, 48 h
A549 NSCLC = system: A549 NSCLC
ACHN renal = system: ACHN renal
M14 melanoma = system: M14 melanoma
MALME-3M melanoma = system: MALME-3M melanoma
RXF 393 renal = system: RXF 393 renal
SK-MEL-28 melanoma = system: SK-MEL-28 melanoma
SNB-19 CNS = system: SNB-19 CNS
U251 CNS = system: U251 CNS
CCRF-CEM leukemia = system: CCRF-CEM leukemia
COLO 205 colon = system: COLO 205 colon
HCC-2998 colon = system: HCC-2998 colon
HCT-116 colon = system: HCT-116 colon
HCT-15 colon = system: HCT-15 colon
HL-60(TB) leukemia = system: HL-60(TB) leukemia
HOP-62 NSCLC = system: HOP-62 NSCLC
HS 578T breast = system: HS 578T breast
IGROV1 ovarian = system: IGROV1 ovarian
KM12 colon = system: KM12 colon
MCF7 breast = system: MCF7 breast
MDA-MB-435 = system: MDA-MB-435
MOLT-4 leukemia = system: MOLT-4 leukemia
NCI-H23 lung = system: NCI-H23 lung
NCI-H460 lung = system: NCI-H460 lung
NCI-H522 lung = system: NCI-H522 lung
NCI/ADR-RES ovarian = system: NCI/ADR-RES ovarian
OVCAR-3 ovarian = system: OVCAR-3 ovarian
OVCAR-4 ovarian = system: OVCAR-4 ovarian
OVCAR-5 ovarian = system: OVCAR-5 ovarian
OVCAR-8 ovarian = system: OVCAR-8 ovarian
RPMI-8226 leukemia = system: RPMI-8226 leukemia
SF-268 CNS = system: SF-268 CNS
SF-539 CNS = system: SF-539 CNS
SK-MEL-2 melanoma = system: SK-MEL-2 melanoma
SK-MEL-5 melanoma = system: SK-MEL-5 melanoma
SK-OV-3 ovarian = system: SK-OV-3 ovarian
SR leukemia = system: SR leukemia
T-47D breast = system: T-47D breast
TK-10 renal = system: TK-10 renal
UO-31 renal = system: UO-31 renal

In the case of `CC1(C)COC(c2ccc(CC(Cc3ccc(C4(C(C)(C)C)OCC(C)(C)CO4)cc3)C(=O)O)cc2)(C(C)(C)C)OC1`, the GI50 (A549 NSCLC) was 2.06 µM, the TGI (A549 NSCLC) was > 100 µM and the GI50 (ACHN renal) was 2.8 µM. For the same compound, the TGI (ACHN renal) was > 100 µM, the GI50 (M14 melanoma) was > 100 µM and the TGI (M14 melanoma) was > 100 µM. The GI50 (MALME-3M melanoma) was > 100 µM, the TGI (MALME-3M melanoma) was > 100 µM and the GI50 (RXF 393 renal) was 2.86 µM. The TGI (RXF 393 renal) was > 100 µM, the GI50 (SK-MEL-28 melanoma) was > 100 µM and the TGI (SK-MEL-28 melanoma) was > 100 µM. The GI50 (SNB-19 CNS) was 4.14 µM, the TGI (SNB-19 CNS) was > 100 µM and the GI50 (U251 CNS) was 3.03 µM. The TGI (U251 CNS) was > 100 µM.

Compound `COc1ccc(C(=O)/C=C/c2cc(-c3cc(OC)c(OC)c(OC)c3)n[nH]2)cc1` has a GI50 (ACHN renal) of 1.96 µM, a TGI (ACHN renal) of 3.63 µM and a GI50 (CCRF-CEM leukemia) of 1.42 µM. For the same compound, the TGI (CCRF-CEM leukemia) was 5.85 µM, the GI50 (COLO 205 colon) was 1.73 µM and the TGI (COLO 205 colon) was 3.24 µM. The GI50 (HCC-2998 colon) was 1.78 µM, the TGI (HCC-2998 colon) was 3.4 µM and the GI50 (HCT-116 colon) was 1.73 µM. The TGI (HCT-116 colon) was 5.86 µM, the GI50 (HCT-15 colon) was 1.58 µM and the TGI (HCT-15 colon) was 4.37 µM. It also gave a GI50 (HL-60(TB) leukemia) of 2.16 µM, a TGI (HL-60(TB) leukemia) of 4.78 µM and a GI50 (HOP-62 NSCLC) of 1.76 µM. The TGI (HOP-62 NSCLC) was 3.77 µM, the GI50 (HS 578T breast) was 3.6 µM and the TGI (HS 578T breast) was > 100 µM. The GI50 (IGROV1 ovarian) was 2.21 µM, the TGI (IGROV1 ovarian) was 4.81 µM and the GI50 (KM12 colon) was 1.56 µM. It also gave a TGI (KM12 colon) of 3.06 µM, a GI50 (M14 melanoma) of 2.2 µM and a TGI (M14 melanoma) of 4.93 µM. It also gave a GI50 (MCF7 breast) of 1.15 µM, a TGI (MCF7 breast) of 2.96 µM and a GI50 (MDA-MB-435) of 2.2 µM. The TGI (MDA-MB-435) was 5.7 µM, the GI50 (MOLT-4 leukemia) was 2.67 µM and the TGI (MOLT-4 leukemia) was 6.82 µM. It also gave a GI50 (NCI-H23 lung) of 3.04 µM, a TGI (NCI-H23 lung) of 12.2 µM and a GI50 (NCI-H460 lung) of 1.72 µM. For the same compound, the TGI (NCI-H460 lung) was 3.75 µM, the GI50 (NCI-H522 lung) was 1.47 µM and the TGI (NCI-H522 lung) was 3.2 µM. For the same compound, the GI50 (NCI/ADR-RES ovarian) was 2.76 µM, the TGI (NCI/ADR-RES ovarian) was 9.85 µM and the GI50 (OVCAR-3 ovarian) was 1.74 µM. For the same compound, the TGI (OVCAR-3 ovarian) was 3.56 µM, the GI50 (OVCAR-4 ovarian) was 2.2 µM and the TGI (OVCAR-4 ovarian) was 8.32 µM. The GI50 (OVCAR-5 ovarian) was 1.88 µM, the TGI (OVCAR-5 ovarian) was 3.78 µM and the GI50 (OVCAR-8 ovarian) was 2.43 µM. For the same compound, the TGI (OVCAR-8 ovarian) was 8.26 µM, the GI50 (RPMI-8226 leukemia) was 0.433 µM and the TGI (RPMI-8226 leukemia) was 2.49 µM. It also gave a GI50 (RXF 393 renal) of 1.27 µM, a TGI (RXF 393 renal) of 2.56 µM and a GI50 (SF-268 CNS) of 1.99 µM. It also gave a TGI (SF-268 CNS) of 5.12 µM, a GI50 (SF-539 CNS) of 1.62 µM and a TGI (SF-539 CNS) of 3.08 µM. It also gave a GI50 (SK-MEL-2 melanoma) of 4.14 µM, a TGI (SK-MEL-2 melanoma) of 19.6 µM and a GI50 (SK-MEL-28 melanoma) of 2.12 µM. It also gave a TGI (SK-MEL-28 melanoma) of 4.42 µM, a GI50 (SK-MEL-5 melanoma) of 1.72 µM and a TGI (SK-MEL-5 melanoma) of 3.24 µM. The GI50 (SK-OV-3 ovarian) was 3.99 µM, the TGI (SK-OV-3 ovarian) was 20.5 µM and the GI50 (SR leukemia) was 0.347 µM. The TGI (SR leukemia) was 23.9 µM, the GI50 (T-47D breast) was 2.31 µM and the TGI (T-47D breast) was 13 µM. For the same compound, the GI50 (TK-10 renal) was 2.22 µM, the TGI (TK-10 renal) was 5.77 µM and the GI50 (UO-31 renal) was 1.45 µM. It also gave a TGI (UO-31 renal) of 2.84 µM.
